# Results as given in ChEMBL document CHEMBL1131553, “Orally active indole N-oxide PDE4 inhibitors” (Bioorg Med Chem Lett, 1998).
# Experiments:
# [1] = system: Mus musculus; assay: In vivo inhibition of LPS induced tumor necrosis factor (TNF-alpha) in mice; type: functional
# [2] = system: Canis familiaris; assay: Emetic effect in dogs on intravenous dose (2/2); type: functional; conditions: Canis lupus familiaris
# [3] = biological target: T1, Phosphodiesterase 4 (Homo sapiens, UniProt P27815+Q08499+Q07343+Q08493); assay: Inhibition of phosphodiesterase type IV (PDE4) activity; type: protein assay
# [4] = system: Mus musculus; assay: In vivo inhibition of LPS induced tumor necrosis factor (TNF-alpha) in mice at 50 mg/kg; type: functional
# [5] = biological target: T1, Phosphodiesterase 4; type: protein assay
# [6] = system: Mus musculus; assay: In vivo inhibition of LPS induced tumor necrosis factor (TNF-alpha) in mice at 10 mg/kg; type: functional
# [7] = system: Canis familiaris; assay: Emetic effect in dogs on intravenous dose (3/4); type: functional; conditions: Canis lupus familiaris
# [8] = system: Canis familiaris; assay: Emetic effect in dogs on intravenous dose (4/4); type: functional; conditions: Canis lupus familiaris
# [9] = Maximum concentration in plasma upon oral administration in mouse; type: ADME, organism-based; conditions: read-out: Cp max
# [10] = Half-life by oral administration in mouse; type: ADME, organism-based; conditions: in vivo
# [11] = Time taken to reach maximum concentration in plasma upon oral administration in mouse; type: ADME, organism-based
# [12] = Value distribution upon iv administration in mouse; type: ADME, organism-based; conditions: in vivo, read-out: Vdss
# [13] = Half-life by iv administration in mouse; type: ADME, organism-based; conditions: in vivo
# [14] = Plasma clearance value upon iv administration in mouse; type: ADME, organism-based
# [15] = Oral bioavailability in mouse; type: ADME, organism-based; conditions: in vivo
# [16] = system: Canis familiaris; assay: Emetic effect in dogs on intravenous dose (0/4); type: functional; conditions: Canis lupus familiaris
# [17] = Area under curve by ioral administration in mouse; type: ADME, organism-based; conditions: in vivo, po
# [18] = Area under curve by iv administration in mouse; type: ADME, organism-based; conditions: in vivo
# [19] = system: Rattus norvegicus; assay: Streptococcal cell wall-washed arthritis model in rats at 30.0 mg/kg peroral dose; type: functional; conditions: route oral
# [20] = system: Rattus norvegicus; assay: Inhibition of streptococcal cell wall-washed arthritis model in rats at 30.0 mg/kg peroral dose; type: functional; conditions: route oral
# [21] = system: Rattus norvegicus; assay: Percentage change in body weight of rats in streptococcal cell wall-washed arthritis model at 10.0 mg/kg peroral dose; type: functional; conditions: route oral
# [22] = system: Rattus norvegicus; assay: Inhibition of streptococcal cell wall-washed arthritis model in rats at 3.0 mg/kg peroral dose; type: functional; conditions: route oral
# [23] = system: Rattus norvegicus; assay: Streptococcal cell wall-washed arthritis model in rats at 10.0 mg/kg peroral dose; type: functional; conditions: route oral
# [24] = system: Rattus norvegicus; assay: Inhibition of streptococcal cell wall-washed arthritis model in rats at 10.0 mg/kg peroral dose; type: functional; conditions: route oral
# [25] = system: Rattus norvegicus; assay: Percentage change in body weight of rats in streptococcal cell wall-washed arthritis model at 3.0 mg/kg peroral dose; type: functional; conditions: route oral
# [26] = system: Rattus norvegicus; assay: Percentage change in body weight of rats in streptococcal cell wall-washed arthritis model at 30.0 mg/kg peroral dose; type: functional; conditions: route oral
# [27] = system: Rattus norvegicus; assay: Streptococcal cell wall-washed arthritis model in rats at 3.0 mg/kg peroral dose; type: functional; conditions: route oral
Compound,IC50 [3] [nM],Ki [5] [nM],inhibition in vivo at 50 mg/kg [4] [%],also measured
COc1ccc(C2CNC(=O)C2)cc1OC1CCCC1 (configuration not stated) [ROLIPRAM],,,,ED50 [1]: 8.2 mg/kg; ED50 [2]: 0.03 mg/kg
Cc1cn(CCCc2ccccc2)c2cc(C(=O)Nc3c(Cl)c[n+]([O-])cc3Cl)ccc12,7,30,34,
Cc1cn(CCCC2CCCCC2)c2cc(C(=O)Nc3c(Cl)c[n+]([O-])cc3Cl)ccc12,16,67,47,
Cc1nc(Cn2cc(C)c3ccc(C(=O)Nc4c(Cl)c[n+]([O-])cc4Cl)cc32)cs1,80,64,52,
Cc1cn(Cc2nccn2Cc2ccccc2)c2cc(C(=O)Nc3c(Cl)c[n+]([O-])cc3Cl)ccc12,420,393,38,
Cc1cn(CC2CCCCC2)c2cc(C(=O)Nc3c(Cl)cncc3Cl)ccc12,,,0,
Cc1cn(CC2CCCCCC2)c2cc(C(=O)Nc3c(Cl)c[n+]([O-])cc3Cl)ccc12,20,30,,inhibition in vivo at 10 mg/kg [6]: 8%
Cc1cn(C2CCCCC2)c2cc(C(=O)Nc3c(Cl)c[n+]([O-])cc3Cl)ccc12,19,38,,
Cc1cn(CCC2CCCCC2)c2cc(C(=O)Nc3c(Cl)c[n+]([O-])cc3Cl)ccc12,4.1,12,,ED50 [1]: 7.4 mg/kg; ED50 [7]: 1 mg/kg
COc1ccc(C(=O)Nc2c(Cl)cncc2Cl)cc1OC1CCCC1,,,,ED50 [8]: 0.6 mg/kg; ED50 [1]: 3.1 mg/kg
Cc1cn(Cc2ccccc2)c2cc(C(=O)Nc3c(Cl)cncc3Cl)ccc12,,,0,
Cc1cn(CCCCc2ccccc2)c2cc(C(=O)Nc3c(Cl)c[n+]([O-])cc3Cl)ccc12,46,135,,inhibition in vivo at 10 mg/kg [6]: 53%
Cc1cn(CC(C)C)c2cc(C(=O)Nc3c(Cl)c[n+]([O-])cc3Cl)ccc12,38,116,,inhibition in vivo at 10 mg/kg [6]: 0%
Cc1cn(CC2CCCCC2)c2cc(C(=O)Nc3c(Cl)c[n+]([O-])cc3Cl)ccc12,30,86,,Cmax [9]: 439 ng/mL; Mean AUC [19]: 1.1; inhibition in vivo at 30 mg/kg [20]: 77%; Change [21]: -7%; half-life [10]: 2.5 h; inhibition in vivo at 3 mg/kg [22]: 25%; Tmax [11]: 1 h; Vd [12]: 1.7 L/kg; half-life [13]: 3.6 h; Mean AUC [23]: 3.3; ED50 [1]: 7.1 mg/kg; clearance [14]: 5 mL/min/kg; inhibition in vivo at 10 mg/kg [24]: 33%; Change [25]: -5%; bioavailability [15]: 96%; Change [26]: -13%; Mean AUC [27]: 3.7; ED50 [16]: > 0.8 mg/kg; AUC [17]: 3140 ng·h/mL; AUC [18]: 3260 ng·h/mL

# The next lines start with results.
IC50 [3] [nM],Ki [5] [nM],Compound,inhibition in vivo at 50 mg/kg [4] [%],also measured
260,1124,Cc1cn(Cc2ccc(S(C)(=O)=O)cc2)c2cc(C(=O)Nc3c(Cl)c[n+]([O-])cc3Cl)ccc12,38,
12,71,Cc1cn(Cc2ccc(Cl)cc2)c2cc(C(=O)Nc3c(Cl)c[n+]([O-])cc3Cl)ccc12,10,
24,86,Cc1cn(Cc2ccc3c(c2)OCO3)c2cc(C(=O)Nc3c(Cl)c[n+]([O-])cc3Cl)ccc12,40,
1400,3184,Cc1cn(Cc2ccc(C(=O)O)cc2)c2cc(C(=O)Nc3c(Cl)c[n+]([O-])cc3Cl)ccc12,,
22,51,Cc1cn(Cc2ccc3ccccc3c2)c2cc(C(=O)Nc3c(Cl)c[n+]([O-])cc3Cl)ccc12,,
500,225,Cc1noc(C)c1Cn1cc(C)c2ccc(C(=O)Nc3c(Cl)c[n+]([O-])cc3Cl)cc21,40,
8,60,Cc1cn(Cc2ccccc2)c2cc(C(=O)Nc3c(Cl)c[n+]([O-])cc3Cl)ccc12,,Cmax [9]: 393 ng/mL; half-life [10]: 3.7 h; Tmax [11]: 0.25 h; Vd [12]: 0.9 L/kg; half-life [13]: 5.1 h; ED50 [1]: 20 mg/kg; clearance [14]: 8.33 mL/min/kg; bioavailability [15]: 33%; ED50 [16]: 3 mg/kg; AUC [17]: 669 ng·h/mL; AUC [18]: 2020 ng·h/mL
14,67,Cc1cn(Cc2ccc(C(F)(F)F)cc2)c2cc(C(=O)Nc3c(Cl)c[n+]([O-])cc3Cl)ccc12,,ED50 [1]: 10 mg/kg
